Experimental findings from patent publication US8481001B2, “Combination therapies comprising quinoxaline inhibitors of P13K-alpha for use in the treatment of cancer” (Exelixis, Inc., priority 2007, dated 2013) are described below.

Series [1] deals with MCF7 human mammary adenocarcinoma cells. In words: MCF7 breast cancer xenograft model (Study 1 and Study 2). It counts as in vivo. The following applies: Compound B 30 mg/kg qd, single agent. How it is done: On day 0, cells were harvested by trypsinization, and 5×10^6 cells (passage 10 and 95.4% viability for Study 1, passage 9 and 90% viability for Study 2) in 100 μL of a solution made of 50% cold Hanks balanced salt solution with 50% growth factor reduced matrigel (R&D Systems for Study 1 and Becton Dickinson for Study 2) implanted subcutaneously into the hindflank of female nude mice.
Compound A was tested both as a single agent and in combination with Compound B, an EGFR inhibitor, in a breast tumor model. The MCF7 human breast carcinoma cell line harbors a heterozygous, activating mutation in PI3K (PI3KCA/E545K) and expresses wild-type EGFR.
Compound B was administered orally once-daily (qd) at 30 mg/kg, and Compound A was administered once-daily at 30 mg/kg or once every other day (q2d) at 100 mg/kg. Combination therapies consisted of Compound B together with Compound A at 30 mg/kg qd or 100 mg/kg q2d.

Series [2] deals with A549 human lung carcinoma cells. The series can be described thus: A549 non-small cell lung cancer xenograft model. Type of series: in vivo. As to the method: A transponder was implanted in each mouse for identification, and animals were monitored daily for clinical symptoms and survival. Body weights were recorded daily.
Compound A was tested both as a single agent and in combination with Compound B. The A549 human non-small cell lung carcinoma cell line harbors a homozygous stop mutation in the gene encoding LKB1, and an activating G12S mutation in K-Ras, promoting activation of both PI3K and mTOR. A549 cells also express wild-type EGFR.
As a single agent, Compound B, an inhibitor of EGFR, was orally administered once-daily at 30 mg/kg and Compound A was orally administered either at 30 mg/kg qd or 100 mg/kg q2d. Combination therapies consisted of Compound B with Compound A at 30 mg/kg or 100 mg/kg. Administration of each agent in the combination groups was separated by 6 h.

The subject of series [3] is Calu-6 human lung anaplastic carcinoma cells. The series can be described thus: Calu-6 non-small cell lung cancer xenograft model. Particulars: carboplatin 50 mg/kg i.v. q4d, single agent; FIG. 3. Type of series: in vivo. As to the method:
On day 0, cells were harvested by trypsinization, and 5×10^6 cells (passage #8, 96% viability) in 0.1 mL ice-cold Hank's balanced salt solution were implanted intradermally in the hind-flank of 5-8 week old female athymic nude mice. A transponder was implanted in each mouse for identification, and animals were monitored daily for clinical symptoms and survival. Body weights were recorded daily.
Calu-6 is a human NSCLC cell line that harbors a heterozygous activating mutation in K-Ras (Q61K).

For series [4], the system named is MDA-MB-468 cells. Particulars: in vitro treatment of MDA-MB-468 cells. An excerpt:
(§1) MDA-MB-468 is a human breast carcinoma cell line that has an increase in the copy number of the EGFR gene and a homozygous deletion of PTEN.

Series [5] deals with MDA-MB-468 human breast adenocarcinoma cells.
Excerpt: as §1

Series [6] deals with PC-3 human prostate adenocarcinoma cells. It counts as in vivo. Particulars: taxol 7.5 mg/kg i.v. twice weekly, single agent; FIG. 1.
Method: Female and male athymic nude mice (NCr) 5-8 weeks of age and weighing approximately 20-25 g were used in the following model. Prior to initiation of a study, the animals were allowed to acclimate for a minimum of 48 h. During these studies, animals were provided food and water ad libitum and housed in a room conditioned at 70-75° F. and 60% relative humidity. A12 h light and 12 h dark cycle was maintained with automatic timers. All animals were examined daily for compound-induced or tumor-related deaths.
PC-3 human prostate adenocarcinoma cells were cultured in vitro in DMEM (Mediatech) supplemented with 20% Fetal Bovine Serum (Hyclone), Penicillin-Streptomycin and non-essential amino acids at 37° C. in a humidified 5% CO2 atmosphere. […] A transponder was implanted in each mouse for identification, and animals were monitored daily for clinical symptoms and survival. Body weights were recorded daily.
For subcutaneous or intradermal tumors, the mean tumor weight of each animal in the respective control and treatment groups was determined twice weekly during the study. […] Percent inhibition of tumor growth (TGI) is determined with the following formula: […]
[formula] Tumor size is calculated individually for each tumor to obtain a mean±SEM value for each experimental group. Statistical significance is determined using the 2-tailed Student's t-test (significance defined as P<0.05).
Setting [7] is: Compound B 30 mg/kg qd, single agent.

As for `COc1cc2c(Nc3ccc(Cl)c(Cl)c3F)ncnc2cc1OC[C@@H]1C[C@@H]2CN(C)C[C@@H]2C1` [Compound B, N-(3,4-dichloro-2-fluorophenyl)-7-({[(3aR,5r,6aS)-2-methyloctahydrocyclopenta-[c]pyrrol-5-yl]methyl}oxy)-6-(methyloxy)quinazolin-4-amine], the tolerability entry in series [1] is given as “generally well tolerated”. Further, in series [2] (setting [7]), the body weight loss was 1.5-6.9%, the dose omission result is given as “no dose omission” and the tolerability entry is reported as “generally well tolerated”. The tumor growth inhibition in series [2] (Compound B oral 30 mg/kg once-daily for 18 days, single agent) is 80%. Further, the “tolerability (summary)” value in series [2] (single agent administration) is given as “well tolerated with minimal dose skipping”.

For the compound `N.N.O=C([O-])C1(C(=O)[O-])CCC1.[Pt+2]` [carboplatin], the tumor growth inhibition result in series [3] is given as “Significant tumor growth inhibition”.

`C#Cc1cccc(Nc2ncnc3cc(OCCOC)c(OCCOC)cc23)c1` [erlotinib]: the PI3K pathway entry in series [4] is listed as “fails to downregulate the PI3K pathway”. Further, the tumor growth inhibition result in series [5] (erlotinib oral 100 mg/kg qd, single agent, FIG. 5) is “significant but incomplete tumor growth inhibition”. Also, the “rate of body weight gain” value in series [5] (mouse, in vivo) is “apparent decrease in their rate of body weight gain”.

Consider `CC(=O)O[C@H]1C(=O)[C@@]2(C)[C@H]([C@H](OC(=O)c3ccccc3)[C@]3(O)C[C@H](OC(=O)[C@H](O)[C@@H](NC(=O)c4ccccc4)c4ccccc4)C(C)=C1C3(C)C)[C@]1(OC(C)=O)CO[C@@H]1C[C@@H]2O` [taxol, Paclitaxel], for which the tumor growth inhibition entry in series [6] is recorded as “Comparable tumor growth inhibition”.
